# Values quoted from earlier work in the CATMoS acute toxicity set (Mansouri et al. 2021).
# Test: rat acute oral toxicity
# Details: in vivo
row,Structure (SMILES),LD50 [mg/kg]
1,CC(C)=CC1C(C(=O)OCc2cc3c(cc2Cl)OCO3)C1(C)C (stereo not drawn),15000
2,Nc1ccc(C(=O)O)c(O)c1,8000
3,CNC(=O)Oc1cc(C)c(C)c(C)c1,178
4,CC(C)CCCCCCO,2980
5,CCC(C)NCC(O)c1ccc(N)cc1 (stereo not drawn),650
6,C=CC(OC(C)=O)OC(C)=O,35
7,CCC1NC(=O)c2cc(N)ccc2O1 (stereo not drawn),1890
8,O=c1[nH]c2ccc(Br)cc2o1,1000
9,CN(C)P(=O)(OC=C(Cl)Cl)c1ccc(Cl)cc1 (stereo not drawn),500
10,CC(CN)CCCN (stereo not drawn),1690
11,CC(C)OC(=O)OOC(=O)OC(C)C,2140
12,CCCCCCS,1250
13,Cc1ccc(S(=O)(=O)NN)cc1,283
14,CCCOC(=O)CCC,15000
15,O=C1C=CC(=O)N1CCCCCCN1C(=O)C=CC1=O,550
16,O=c1[nH]sc2ccccc12,1020
17,OC1CCc2ccccc21 (stereo not drawn),620
18,O=Cc1ccc([N+](=O)[O-])cc1,4700
19,CC(C)=NNC(=O)CSc1cc(Oc2ccccc2)ncn1,1080
20,CCOP(=S)(OCC)SCC(=O)OC,1000
21,OCC(Cl)CCl (stereo not drawn),90
22,CC(Oc1cccc2ccccc12)C(N)=NO (stereo not drawn),90
23,CCN[C@H]1C[C@H](C)S(=O)(=O)c2sc(S(N)(=O)=O)cc21,1930
24,O=C(O)[C@@H]1CC[C@H](C(=O)O)C1,3250
25,NC(=O)C(O)(c1ccccc1)c1ccccc1,1550
26,CCCCNCC1COc2cccc(OCC)c2O1 (stereo not drawn),348

row,Structure (SMILES),LD50 [mg/kg]
1,Cc1c(C(=O)N(C)C)nnn1-c1ccccc1,500
2,CN(C)CCn1c2ccccc2c(=O)c2c([N+](=O)[O-])cccc21,41
3,CCCCCCCCCC(=O)OC1(c2ccc(Cl)cc2)CCN(CCCC(=O)c2ccc(F)cc2)CC1,1720
4,CC(O)c1ccccc1 (stereo not drawn),400
5,CC(NCCO)c1ccccc1 (stereo not drawn),2830
6,COC(=O)CCC(Cl)C(C)=O (stereo not drawn),2050
7,Cc1ccc(N(SC(F)(Cl)Cl)S(=O)(=O)N(C)C)cc1,1000
8,CCC(=O)OCc1ccc(OC)cc1,3330
9,COc1cc(CC(C)N)cc2c1OCO2 (stereo not drawn),170
10,CN(C)CN(C)C,1770
11,C#CCCC#CC#CCCCCO,250
12,COc1ccc(OC)c(Cc2cnc3nc(N)nc(N)c3c2C)c1,1170
13,O=C(Cl)c1ccc(Oc2ccc(C(=O)Cl)cc2)cc1,8700
14,C=COC(=O)CCC,8530
15,Cc1ccccc1NC(=S)NN,200
16,COc1ccc(C=O)cc1,1510
17,O=[N+]([O-])c1cc(C(F)(F)F)ccc1Cl,1080
18,CN(C)CCN(Cc1cccs1)c1ccccn1,200
19,CCc1cccc(CC)c1N(CNC(C)=O)C(=O)CCl,3100
20,COc1cc(C=CC(=S)N2CCOCC2)cc(OC)c1OC,1350
21,CCOP(=S)(OCC)Oc1ccc(N)cc1,450
22,CCCCOc1ccc(CC(=O)NO)cc1,3370
23,FC(F)(F)c1nc2c(Cl)cc(I)cc2[nH]1,1.44
24,CCC1OC(C)C(=NOC(=O)NC)S1 (stereo not drawn),8
25,O=C(NCCN1CCOCC1)c1ccc(Cl)cc1,707
26,CN(C)C#N,146

row,Structure (SMILES),LD50 [mg/kg]
1,CC[N+](C)(C)CCO,6930
2,COP(=O)(SC)c1ccccc1 (stereo not drawn),55.3
3,O=C(O)C1CSCN1 (stereo not drawn),875
4,ClCCCCCCCCC(Cl)(Cl)Cl,370
5,CC(C)=NNC(N)=S,48.5
6,COP(=O)(NC=O)SC (stereo not drawn),190
7,CCc1c(C)nc2cc(C)cc(C)n2c1=O,1500
8,OCC1OC(N2CCN(C3OC(CO)C(O)C(O)C3O)CC2)C(O)C(O)C1O (stereo not drawn),30000
9,C=CCOc1ccccc1C(=O)N(C)C,740
10,O=C(O)CCCCCCI,2240
11,CC=CC(=O)N(CC)c1ccccc1C,1500
12,Nc1ccc(I)cc1,523
13,C[N+](C)(C)[O-],8700
14,C=Cc1ccc(OC(C)=O)cc1,1500
15,Cc1c(N)nc(C)c2c1[nH]c1ccccc12,100
16,CCN(CC)CCN,2830
17,CCCCO[Si](OCCCC)(OCCCC)N(C)C1CCCCC1,3550
18,COc1cc(C[C@H]2c3cc(OC)c(OC)cc3CCN2C)c(Oc2cc3c(cc2OC)-c2c(OC)c(OC)cc4c2[C@H](C3)N(C)CC4)cc1OC,1500
19,COP(=O)(OC)SCCSC,20
20,CCCCCCCC/C=C\CCCCCCCC(=O)N(C)CCS(=O)(=O)O,1700
21,CCCCC/C(=C/c1ccccc1)CO,4000
22,COc1ccc2c(c1)c(CC(=O)Oc1ccccc1C(=O)O)c(C)n2C(=O)c1ccc(Cl)cc1,59.5
23,CCSc1nnc(C(C)(C)C)c(=O)n1N,599
24,CNC(=O)Nc1ccccc1,3440
25,O=C1OCCC1N(C(=O)C1CC1)c1cccc(Cl)c1 (stereo not drawn),174
26,CC(C)NCCCC1(C(N)=O)c2ccccc2-c2ccccc21,82
